Patent US11919856B2, “Compounds” (UCL BUSINESS LTD, priority 2018, dated 2024)
Read-outs that look alike come from different tables or passages of the source.

Assays:
CHO-TET-ON-Z-A1AT cells = assay: Cell viability assay with ER stressor tunicamycin; format: cell-based; details: 10 μM, versus cells expressing wild-type M α1-antitrypsin
Protocol: To investigate the ability of Compound 1 to protect cells from sensitisation to a secondary toxin, Z α1-antitrypsin expression was induced in CHO-TET-ON-Z-A1AT cells in the presence or absence of 10 μM Compound 1 before exposure to varying concentrations of the ER stressor tunicamycin. In a cell viability assay, cells expressing wild-type M α1-antitrypsin were less sensitive to tunicamycin than cells expressing Z α1-antitrypsin.

α1-antitrypsin = assay: Thermal shift assay (SYPRO Orange); format: biochemical; details: 50 µM Compound 1, SYPRO Orange, versus absence
Protocol: The native state stability of serpins on addition of compounds was investigated by thermal denaturation in the presence of a 5× concentration of SYPRO Orange dye solution (Life Technologies). A final protein concentration of 0.1 mg/ml and 50 uM compound suspended in PBS was used (Nettleship et al. Methods Mol Biol. 2008; 426:299-318). The samples were heated from 25° C.-95° C. at a rate of 1° C./min in three separate experiments on an Eppendorph Mastercycler Realplex4 quantitative real-time PCR instrument, and the fluorescence in the 605±15 nm bin recorded. The midpoint of denaturation (Tm) is the temperature at which the first derivative of fluorescence intensity against temperature reaches a maximum.
Polymerisation of α1-antitrypsin occurs from a transient intermediate state known as M*, that is readily populated by the Z variant. One of the hallmarks of M* is its recognition by environment-sensitive fluorescent reporter dyes. Thermal shift assays that make use of the dye SYPRO Orange report the stability of the protein native state against heat-induced unfolding. […] Native state stability can also be probed by equilibrium unfolding using chemical denaturants, where a peak in bis-ANS fluorescence corresponds with a maximally populated unfolding intermediate.

M α1-antitrypsin = biological target: T1, M α1-antitrypsin (Homo sapiens, UniProt P01009); assay: Stoichiometry of inhibition against chymotrypsin, M α1-antitrypsin; format: biochemical; details: M α1-antitrypsin pre-incubated with compound
T1 construct: Alpha1-antitrypsin was purified from the plasma of ZZ and MM α1-antitrypsin homozygotes; from tissue; host or cells: plasma of MM homozygotes
T1 sequence (P01009 25-418): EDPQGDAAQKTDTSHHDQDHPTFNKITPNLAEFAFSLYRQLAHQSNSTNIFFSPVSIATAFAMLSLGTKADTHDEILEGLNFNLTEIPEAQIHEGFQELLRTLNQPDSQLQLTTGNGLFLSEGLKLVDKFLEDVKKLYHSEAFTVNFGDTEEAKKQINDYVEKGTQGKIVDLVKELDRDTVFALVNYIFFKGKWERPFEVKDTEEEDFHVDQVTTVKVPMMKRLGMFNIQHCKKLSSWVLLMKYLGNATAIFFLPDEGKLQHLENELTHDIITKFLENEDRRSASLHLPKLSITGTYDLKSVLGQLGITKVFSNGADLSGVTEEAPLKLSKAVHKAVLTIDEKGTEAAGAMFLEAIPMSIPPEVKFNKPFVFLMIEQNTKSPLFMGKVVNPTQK
Protocol: Mutations that interfere with the opening of […] or that perturb its interaction with the N-terminal portion of the reactive centre loop alter the ability of serpins to inhibit target proteases. The stoichiometry of inhibition (SI) was determined for M and Z α1-antitrypsin in discontinuous experiments against a model target protease, chymotrypsin. The pre-incubation of both variants with Compound 1 led to a >98% loss of protease inhibitory activity. […] To investigate whether this activity was consistent with action as a chemical chaperone, M and Z α1-antitrypsin were unfolded in vitro into 6 M guanidine hydrochloride, and rapidly refolded by snap dilution into denaturant-free buffer in the presence or absence of Compound 1.

antithrombin = antithrombin (Homo sapiens, UniProt P01008); assay: Serpin inhibitory activity, antithrombin; format: biochemical; details: incubation with 50 μM
Sequence of antithrombin (P01008 33-464): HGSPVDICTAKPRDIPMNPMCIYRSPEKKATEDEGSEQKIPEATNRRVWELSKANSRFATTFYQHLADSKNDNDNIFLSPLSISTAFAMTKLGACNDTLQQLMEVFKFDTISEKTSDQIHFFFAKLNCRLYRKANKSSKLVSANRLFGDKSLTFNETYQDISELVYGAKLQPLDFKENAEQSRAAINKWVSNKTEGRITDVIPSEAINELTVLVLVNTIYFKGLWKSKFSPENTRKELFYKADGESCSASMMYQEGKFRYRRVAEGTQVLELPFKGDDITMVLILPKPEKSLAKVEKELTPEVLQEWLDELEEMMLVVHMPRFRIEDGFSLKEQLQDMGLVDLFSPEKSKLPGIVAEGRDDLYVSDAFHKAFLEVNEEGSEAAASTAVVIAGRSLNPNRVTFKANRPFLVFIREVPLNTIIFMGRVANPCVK
Description: In order to investigate suitability of Compound 1 for progression into in vivo studies and the potential for taking forward as a clinical candidate for testing in human, Compound 1 was profiled against a panel of in vitro assays for off-targets considered predictive of potential safety liabilities. […] The measured potency of these marginal activities were at least 10-fold below the cellular activity of Compound 1 at blocking Z α1-antitrypsin polymerisation (pEC50 6.3). Loss of inhibitory activity represents a means by which possible off-target engagement with other serpins can be evaluated. However in contrast to α1-antitrypsin upon incubation with 50 μM Compound 1 the inhibitory activity of the homologues antithrombin, neuroserpin and antichymotrypsin was not affected.

human serum albumin = human serum albumin (Homo sapiens, UniProt P02768); assay: Binding to human serum albumin; format: in vitro ADME
Sequence of human serum albumin (P02768 25-609): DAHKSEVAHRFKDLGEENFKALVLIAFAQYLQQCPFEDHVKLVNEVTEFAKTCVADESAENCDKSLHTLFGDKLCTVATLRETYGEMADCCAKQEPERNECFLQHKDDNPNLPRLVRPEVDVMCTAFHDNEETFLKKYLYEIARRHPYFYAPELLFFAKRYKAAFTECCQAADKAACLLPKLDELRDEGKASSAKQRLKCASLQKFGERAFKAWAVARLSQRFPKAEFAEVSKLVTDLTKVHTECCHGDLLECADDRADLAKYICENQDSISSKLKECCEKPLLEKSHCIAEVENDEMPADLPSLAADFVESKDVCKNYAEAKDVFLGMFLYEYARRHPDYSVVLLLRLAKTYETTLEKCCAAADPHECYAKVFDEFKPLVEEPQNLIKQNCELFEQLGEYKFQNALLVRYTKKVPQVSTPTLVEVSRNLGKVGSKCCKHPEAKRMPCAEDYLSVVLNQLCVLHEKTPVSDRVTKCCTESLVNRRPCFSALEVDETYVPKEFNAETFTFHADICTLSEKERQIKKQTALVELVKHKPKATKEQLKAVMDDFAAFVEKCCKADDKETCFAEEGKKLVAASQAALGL

Z α1-antitrypsin = Z α1-antitrypsin (Homo sapiens, UniProt P01009, E366K/V237A); assay: Secretion of Z α1-antitrypsin from CHO-TET-ON-Z-A1AT cells (immunoassay of supernatant); format: cell-based; set-up: expressed in transfected cells; host or cells: CHO Tet-On (CHO-K1) cells, doxycycline-induced
Sequence of Z α1-antitrypsin (P01009 25-418 V237A/E366K): as the sequence (P01009 25-418) above, with V213A, E342K counted along it
Protocol: CHO Tet-On cells that conditionally express Z α1-antitrypsin (Ordóñez A et al. Hepatology 2013; 57(5):2049-60.) were simultaneously treated with 0.5 μg/mL […] and various concentrations of compounds for 48 hours in 6 well plates. Cells without doxycycline or treated with 1% v/v DMSO acted as controls. The cells were lysed and intracellular Z α1-antitrypsin polymer was evaluated by ELISA sandwich with the 2C1 monoclonal antibody (Miranda et al. Hepatology. 2010; 52:1078-88). Newly synthesised α1-antitrypsin was evaluated by growing cells induced to express Z α1-antitrypsin in DMEM without methionine (Met) and cysteine (Cys) for 1 h and then labelling with 1.3 MBq of ^35S-Met/Cys for 15 min. The cells were then rinsed and incubated in chase medium containing an excess of unlabeled Met and Cys for 0, 2 and 6 h. After the chase period, the medium was collected and cells were harvested. α1-Antitrypsin from the medium and cell lysates was immunoprecipitated with a polyclonal α1-antitrypsin antibody or the 2C1 monoclonal antibody that detects polymers by splitting each sample in two equal parts. Radiolabelled proteins were re-suspended in SDS loading buffer, boiled for 5 min, separated by 10% w/v acrylamide SDS-PAGE, and quantified by autoradiography.
Its ability to block Z α1-antitrypsin polymerisation in the ER during folding was assessed by adding Compound 1 to CHO-TET-ON-Z-A1AT cells (Ordóñez et al. Hepatology. 2013; 57(5):2049-60) with simultaneous induction of Z α1-antitrypsin expression using doxycycline. […] To investigate whether in addition to blocking polymerisation, Compound 1 was also able to increase secretion of Z α1-antitrypsin, Z α1-antitrypsin expression was induced in CHO-TET-ON-Z-A1AT cells, Compound 1 was added, and the total Z α1-antitrypsin in the supernatant was measured by immunoassay after 6 hours.

## CCC[C@@H](NC(=O)c1cccc2c1CC(=O)N2)[C@@H](O)c1cccc(F)c1C [Compound 1, N-[(1S,2R)-1-(3-fluoro-2-methylphenyl)-1-hydroxypentan-2-yl]-2-oxo-2,3-dihydro-1H-indole-4-carboxamide]
CHO-TET-ON-Z-A1AT cells
  sensitivity to tunicamycin in cell viability assay: restored sensitivity
α1-antitrypsin
  transition midpoint temperature: marked increase
M α1-antitrypsin
  loss of protease inhibitory activity: > 98%
antithrombin
  inhibitory activity of antithrombin: not affected
Human serum albumin
  binding to human serum albumin: 84.2%
Z α1-antitrypsin; CHO-TET-ON-Z-A1AT cells, after 6 hours, read-out: pEC50, secretion of Z α1-antitrypsin (converted)
  EC50: 501 nM
Z α1-antitrypsin; CHO-TET-ON-Z-A1AT cells, supernatant after 6 hours, compared to vehicle control
  increase of secreted levels of Z α1-antitrypsin: approximately 3 fold
Z α1-antitrypsin; cellular secretion assay, read-out: EC50 measured for secretion of Z α1-antitrypsin
  EC50: ~300 nM
